Test: Storage of aqueous solution or slurry for 60 days: HPLC analysis of components and appearance
Type: physicochemical
Conditions: keeping temperature 50° C.
Experimental: (§1) This aqueous solution was kept at 50° C. for 60 days, and, then, the components were analyzed by HPLC and, simultaneously, the appearance of the solution was observed.
as §1
This aqueous solution was kept at 50° C. for 60 days. Then, the components were analyzed by HPLC and, simultaneously, the appearance of the solution was observed.

Row | Structure (SMILES) | Appearance after kept for 60 days | Content of the compound of the formula [I] in aqueous solution after kept for 60 days
1 | O=C([O-])C[C@@H](C(=O)[O-])N(CC(=O)[O-])CC(=O)[O-].[Na+].[Na+].[Na+].[Na+] [Example 86, tetrasodium salt of (S)-aspartic acid-N,N-diacetic acid] | Light yellow transparent aqueous solution | 36.4 wt. %
2 | O=C([O-])CCN[C@@H](CC(=O)[O-])C(=O)[O-].[Na+].[Na+].[Na+] [compound 31, trisodium salt of (S)-aspartic acid-N-monopropionic acid] | Brown aqueous solution | 33.2 wt. %
3 | O=C([O-])CCN[C@@H](CC(=O)[O-])C(=O)[O-].[Na+].[Na+].[Na+] [Example 87, trisodium salt of (S)-aspartic acid-N-monopropionic acid] | Light yellow transparent aqueous solution | 37.8 wt. %
4 | O=C([O-])CN(CC(=O)[O-])c1ccccc1C(=O)[O-].[Na+].[Na+].[Na+] [Example 102, trisodium salt of anthranilic acid-N,N-diacetic acid] | Light yellow transparent aqueous solution | 37.8 wt. %
5 | C[C@@H](C(=O)[O-])N(CC(=O)[O-])CC(=O)[O-].[Na+].[Na+].[Na+] [compound 32, trisodium salt of (S)-α-alanine-N,N-diacetic acid] | Brown aqueous solution | 31.8 wt. %
6 | O=C([O-])CC(NCCNC(CC(=O)[O-])C(=O)[O-])C(=O)[O-].[Cu+2].[Na+].[Na+] (centres unmarked) [Example 124, copper disodium ethylenediamine-N,N′-disuccinate] | Dark blue transparent aqueous solution | 36.3 wt. %
7 | O=C([O-])CC(NCCCNC(CC(=O)[O-])C(=O)[O-])C(=O)[O-].[Na+].[Na+].[Na+].[Na+] (centres unmarked) [Example 114, tetrasodium 1,3-propanediamine-N,N′-disuccinate] | Light yellow transparent aqueous solution | 36.4 wt. %
8 | O=C([O-])C[C@@H](C(=O)[O-])N(CC(=O)[O-])CC(=O)[O-].[Na+].[Na+].[Na+].[Na+] [compound 30, tetrasodium salt of (S)-aspartic acid-N,N-diacetic acid] | Brown aqueous solution | 31.8 wt. %
9 | O=C([O-])CC(NCCNC(CC(=O)[O-])C(=O)[O-])C(=O)[O-].[Cu+2].[Na+].[Na+] (centres unmarked) [compound 48, copper disodium ethylenediamine-N,N′-disuccinate] | Dark blue transparent aqueous solution | 31.4 wt. %
10 | O=C([O-])CN(CCS(=O)(=O)[O-])CC(=O)[O-].[Na+].[Na+].[Na+] [Example 100, trisodium salt of taurine-N,N-diacetic acid] | Light yellow transparent aqueous solution | 34.7 wt. %
11 | CN(CC(=O)[O-])CC(=O)[O-].[Na+].[Na+] [compound 38, disodium N-methyliminodiacetate] | Brown aqueous solution | 29.9 wt. %
12 | O=C([O-])CC(NCCCNC(CC(=O)[O-])C(=O)[O-])C(=O)[O-].[Cu+2].[Na+].[Na+] (centres unmarked) [compound 50, copper disodium 1,3-propanediamine-N,N′-disuccinate] | Dark blue transparent aqueous solution | 32.2 wt. %
13 | O=C([O-])C[C@H](NCCN[C@@H](CC(=O)[O-])C(=O)[O-])C(=O)[O-].[Fe+3].[NH4+] [Example 125, iron ammonium (S,S)-ethylenediamine-N,N′-disuccinate] | Reddish brown aqueous solution | 36.5 wt. %
14 | O=C([O-])CC(NCCCNC(CC(=O)[O-])C(=O)[O-])C(=O)[O-].[Cu+2].[Na+].[Na+] (centres unmarked) [Example 126, copper disodium 1,3-propanediamine-N,N′-disuccinate] | Dark blue transparent aqueous solution | 36.4 wt. %

Test: as above
Type: physicochemical
Conditions: keeping temperature 40° C.

Row | Structure (SMILES) | Appearance after kept for 60 days | Content of the compound of the formula [I] in aqueous solution after kept for 60 days
15 | O=C([O-])CN(CC(=O)[O-])c1ccccc1C(=O)[O-].[Fe+3] [Example 111, iron salt of anthranilic acid-N,N-diacetic acid] | Reddish brown aqueous solution | 39.8 wt. %

Same assay, conditions: keeping temperature 65° C.

Row | Structure (SMILES) | Appearance after kept for 60 days | Content of the compound of the formula [I] in aqueous solution after kept for 60 days
16 | CN(CC(=O)[O-])CC(=O)[O-].[Na+].[Na+] [Example 107, disodium N-methyliminodiacetate] | Light yellow slurry | 64.5 wt. %
17 | O=C([O-])C[C@H](NCCN[C@@H](CC(=O)[O-])C(=O)[O-])C(=O)[O-].[Na+].[Na+].[Na+].[Na+] [Example 118, tetrasodium (S,S)-ethylenediamine-N,N′-disuccinate] | Light yellow slurry | 65.4 wt. %
18 | O=C([O-])C[C@@H](C(=O)[O-])N(CC(=O)[O-])CC(=O)[O-].[Na+].[Na+].[Na+].[Na+] [Example 94, tetrasodium salt of (S)-aspartic acid-N,N-diacetic acid] | Light yellow slurry | 64.5 wt. %
19 | O=C([O-])CN(CCS(=O)(=O)[O-])CC(=O)[O-].[Na+].[Na+].[Na+] [Example 106, trisodium salt of taurine-N,N-diacetic acid] | Light yellow slurry | 63.7 wt. %

Same assay, conditions: keeping temperature 70° C.

Row | Structure (SMILES) | Appearance after kept for 60 days | Content of the compound of the formula [I] in aqueous solution after kept for 60 days
20 | O=C([O-])C[C@H](NCC(O)CN[C@@H](CC(=O)[O-])C(=O)[O-])C(=O)[O-].[Na+].[Na+].[Na+].[Na+] [Example 121, tetrasodium (S,S)-2-hydroxy-1,3-propanediamine-N,N′-disuccinate] | White slurry | 78.7 wt. %
21 | CN(CC(=O)[O-])CC(=O)[O-].[Na+].[Na+] [Example 109, disodium N-methyliminodiacetate] | White slurry | 78.5 wt. %
22 | O=C([O-])CN(CCS(=O)(=O)[O-])CC(=O)[O-].[Na+].[Na+].[Na+] [Example 108, trisodium salt of taurine-N,N-diacetic acid] | White slurry | 76.9 wt. %

Same assay, conditions: keeping temperature 75° C.

Row | Structure (SMILES) | Appearance after kept for 60 days | Content of the compound of the formula [I] in aqueous solution after kept for 60 days
23 | O=C([O-])CC(NCCCNC(CC(=O)[O-])C(=O)[O-])C(=O)[O-].[Na+].[Na+].[Ni+2] [compound 51, nickel disodium (S,S)-1,3-propanediamine-N,N′-disuccinate, reference compound] | Blue transparent aqueous solution | 38.4 wt. %
24 | O=C([O-])C[C@@H](C(=O)[O-])N(CC(=O)[O-])CC(=O)[O-].[Na+].[Na+].[Na+].[Na+] [Example 90, tetrasodium salt of (S)-aspartic acid-N,N-diacetic acid] | Colorless transparent aqueous solution | 49.5 wt. %
25 | O=C([O-])C[C@H](NCC(O)CN[C@@H](CC(=O)[O-])C(=O)[O-])C(=O)[O-].[Na+].[Na+].[Na+].[Na+] [Example 116, tetrasodium (S,S)-2-hydroxy-1,3-propanediamine-N,N′-disuccinate] | Colorless transparent aqueous solution | 44.7 wt. %
26 | O=C([O-])C[C@H](NCC(O)CN[C@@H](CC(=O)[O-])C(=O)[O-])C(=O)[O-].[Na+].[Na+].[Na+].[Na+] [compound 47, tetrasodium (S,S)-2-hydroxy-1,3-propanediamine-N,N′-disuccinate, reference compound] | Colorless transparent aqueous solution | 41.8 wt. %
27 | C[C@@H](C(=O)[O-])N(CC(=O)[O-])CC(=O)[O-].[Na+].[Na+].[Na+] [Example 92, trisodium salt of (S)-α-alanine-N,N-diacetic acid] | Colorless transparent aqueous solution | 49.8 wt. %
28 | O=C([O-])CN[C@@H](CC(=O)[O-])C(=O)[O-].[Na+].[Na+].[Na+] [Example 89, trisodium salt of (S)-aspartic acid-N-monoacetic acid] | Colorless transparent aqueous solution | 49.4 wt. %

— patent publication US6426229B1, “Chelating agent and detergent comprising the same” (Mitsubishi Rayon Co., Ltd., priority 1995, dated 2002)
